According to patent US20140093558A1, “STABLE CRYSTAL MODIFICATIONS OF DOTAP CHLORIDE” (MERCK PATENT GMBH, priority 2011, published 2014):
Like-named read-outs stand apart in the source and are kept apart here.

Legend:
[1] = Storage stability of crystalline DOTAP chloride, remaining content by HPLC; type: physicochemical; details: for stability values compared with crystalline (2R,S)-DOTAP chloride: storage as in Tables 1 and 1a; for remaining content of (2R,S)-DOTAP chloride (HPLC) / remaining content/purity of (2R,S)-DOTAP chloride (HPLC): exclusion of air
Procedure: In order to determine the stability of crystalline (2R,S)-DOTAP chloride, the substance is stored at 25° C. and 60% relative humidity (table 1) or at 40° C. and 75% relative humidity (table 1a) with exclusion of air. The remaining content of (2R,S)-DOTAP chloride is measured at periodic intervals and quoted in comparison to the initial value.
The purity and content of DOTAP chloride are determined by means of HPLC using the following method:
HPLC equipment: Agilent 1200 HPLC • column: ODS-3: 150×3 mm, 3 μm. GI Sciences: lnertsil • eluent A: 10 mM pentanesulfonic acid sodium salt in 0.085%ic aqueous H3PO4 • eluent B: 3.85 mM pentanesulfonic acid sodium salt in 94% acetonitrile containing 0.085%ic aqueous H3PO4
• runtime: 25 min • flow: 1.5 ml/min • pressure: ca. 220 bar • column temperature: 50° C. • injection volume: 10 μl
The stability determination can be repeated at any desired time, the values indicated in Tables 1 and 1a are reproducible.

[2] = Hygroscopicity / handling properties; type: physicochemical; details: crystalline forms
[3] = Solubility in acetonitrile; type: physicochemical; details: room temperature
[4] = some in-vitro studies, compared with DOTAP chloride; cited from earlier work
[5] = amorphous form, normal atmospheric humidity levels; cited from earlier work
[6] = storage under protective gas at −20° C.; cited from earlier work
[7] = 25° C., 60% relative humidity, 0 months
[8] = 25° C., 60% relative humidity, 3 months
[9] = 25° C., 60% relative humidity, 6 months
[10] = 25° C., 60% relative humidity, 9 months
[11] = 25° C., 60% relative humidity, 12 months
[12] = 25° C., 60% relative humidity, 24 months
[13] = 25° C., 60% relative humidity, 36 months
[14] = 40° C., 75% relative humidity, 0 months
[15] = 40° C., 75% relative humidity, 3 months
[16] = 40° C., 75% relative humidity, 6 months
[17] = 40° C., 75% relative humidity, 9 months
[18] = 40° C., 75% relative humidity, 12 months

With “(R)-1,2-dioleoyl-3-propyltrimethylammonium chloride [Crystalline (2R)-DOTAP chloride]” the “stability values compared with crystalline (2R,S)-DOTAP chloride” value [1] was “Crystalline (2R)- and (2S)-DOTAP chloride show comparable stability values” and the hygroscopicity [2] was “remarkably reduced hygroscopicity”.

For `CCCCCCCC/C=C\CCCCCCCC(=O)OCC(C[N+](C)(C)C)OC(=O)CCCCCCC/C=C\CCCCCCCC.[Cl-]` (racemic) [(2R,S)-DOTAP chloride crystalline, (R,S)-1,2-dioleoyl-3-propyltrimethylammonium chloride], the “remaining content of (2R,S)-DOTAP chloride (HPLC)” value [1, 7] was 99.5 % by weight, the “remaining content/purity of (2R,S)-DOTAP chloride (HPLC)” value (shortened to “remaining content/purity”) [1, 7] was 99.7 Area-% and the “remaining content of (2R,S)-DOTAP chloride (HPLC)” value [1, 8] was 99.7 % by weight. The “remaining content/purity” value [1, 8] was 99.6 Area-%, the “remaining content of (2R,S)-DOTAP chloride (HPLC)” value [1, 9] was 99.4 % by weight and the “remaining content/purity” value [1, 9] was 99.5 Area-%. The “remaining content of (2R,S)-DOTAP chloride (HPLC)” value [1, 10] was 99.2 % by weight, the “remaining content/purity” value [1, 10] was 99.2 Area-% and the “remaining content of (2R,S)-DOTAP chloride (HPLC)” value [1, 11] was 99.5 % by weight. The “remaining content/purity” value [1, 11] was 99.5 Area-%, the “remaining content of (2R,S)-DOTAP chloride (HPLC)” value [1, 12] was 99.5 % by weight and the “remaining content/purity” value [1, 12] was 99.7 Area-%. For the same compound, the “remaining content of (2R,S)-DOTAP chloride (HPLC)” value [1, 13] was 99.7 % by weight, the “remaining content/purity” value [1, 13] was 99.3 Area-% and the degradation on storage ([1]; 25 ± 2° C., after 36 months) was “The above stability data confirms that crystalline DOTAP chloride is a stable substance. Even after 36-months no significant degradation was observed for the samples stored at 25 ± 2 °C”. The “remaining content of (2R,S)-DOTAP chloride (HPLC)” value [1, 14] was 99.5 % by weight, the “remaining content/purity” value [1, 14] was 99.7 Area-% and the “remaining content of (2R,S)-DOTAP chloride (HPLC)” value [1, 15] was 99.6 % by weight. The “remaining content/purity” value [1, 15] was 99.6 Area-%, the “remaining content of (2R,S)-DOTAP chloride (HPLC)” value [1, 16] was 99.6 % by weight and the “remaining content/purity” value [1, 16] was 99.4 Area-%. The “remaining content of (2R,S)-DOTAP chloride (HPLC)” value [1, 17] was 98.9 % by weight, the “remaining content/purity” value [1, 17] was 99.3 Area-% and the “remaining content of (2R,S)-DOTAP chloride (HPLC)” value [1, 18] was 99.7 % by weight. The “remaining content/purity” value [1, 18] was 99.4 Area-%, the degradation on storage ([1]; accelerated conditions, 40 ± 2° C., after 12 months) was “The above stability data confirms that crystalline DOTAP Chloride is a stable substance. Even at accelerated conditions after 12-months no significant degradation was observed for the samples stored at 40 ± 2 °C” and the “stability determined by HPLC in relation to the starting value” ([1]; stored at 25° C. for 36 months) was “higher than 99 % by weight and area-%”. The “stability determined by HPLC in relation to the starting value” ([1]; stored at 40° C. for 12 months) was “higher than 99 % by weight and area-%”, the solubility in acetonitrile [3] was “virtually insoluble” and the hygroscopicity [2] was “remarkably reduced hygroscopicity”.

In the case of “(S)-1,2-dioleoyl-3-propyltrimethylammonium chloride [Crystalline (2S)-DOTAP chloride]”, the “stability values compared with crystalline (2R,S)-DOTAP chloride” value [1] is reported as “Crystalline (2R)- and (2S)-DOTAP chloride show comparable stability values” and the hygroscopicity [2] is reported as “remarkably reduced hygroscopicity”.

In the case of `CCCCCCCC/C=C\CCCCCCCC(=O)OCC(C[N+](C)(C)C)OC(=O)CCCCCCC/C=C\CCCCCCCC.COS(=O)(=O)[O-]` (stereo not shown) [DOTAP methylsulfate], the transfection rate [4] is given as “better transfection rates than DOTAP chloride”.

For `CCCCCCCC/C=C\CCCCCCCC(=O)OCC(C[N+](C)(C)C)OC(=O)CCCCCCC/C=C\CCCCCCCC.[Cl-]` (stereo not shown) [amorphous DOTAP chloride, 1,2-dioleoyloxy-3-trimethylammonium propane chloride], the hygroscopicity [5] is listed as “extremely hygroscopic” and the “shelf life guaranteed by the manufacturer” value [6] is listed as “about 6 months”.
